{
  "source": "PubChem BioAssay AID1845194",
  "about": "(Molecular Pharmacology Branch, DTP, NCI, 2023)",
  "test_system": "287954-098-R-J1 tumor spheroid viability",
  "assay": "Anticancer human tumor 287954-098-R-J1 patient-derived Ewing sarcoma cell line growth inhibition",
  "details": "spheroids with HUVEC and MSC; for viability, T/C: stronger effect = lower value",
  "in_short": "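Complex spheroids of malignant cells with endothelial cells and mesenchymal stem cells; agents alone or combined, from near clinical Cmax (or 10 microM if unknown) down in half-log steps, 0.25% DMSO final.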",
  "key": {"[1]": {"details": "curve of first compound, second compound 0.003 µM"}},
  "note": "Where “and” joins values, the source holds several entries; their conditions need not be identical. Identical values can stand only once.",
  "data": [
    {"molecule": "O=C(c1cc(Cc2n[nH]c(=O)c3ccccc23)ccc1F)N1CCN(C(=O)C2CC2)CC1", "note": "+ COc1cc2c(cc1O)CCNC21CSC2c3c(OC(C)=O)c(C)c4c(c3C(COC1=O)N1C(O)C3Cc5cc(C)c(OC)c(O)c5C(C21)N3C)OCO4;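 further: spheroids exposed to compound for 7 days before viability readout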;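 on viability, T/C: luminescent signal taken as surrogate of viable cell content; 100% = DMSO vehicle control viability and lower means growth inhibition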", "values": [
      {"measurement": "IC50", "setting": "curve of first compound, second compound 30 pM", "value": 9.18, "unit": "µM"},
      {"measurement": "IC50", "setting": "curve of first compound, second compound 94.9 pM", "value": 10.5, "unit": "µM"},
      {"measurement": "IC50", "setting": "curve of first compound, second compound 0.0003 µM", "value": 1.46, "unit": "µM"},
      {"measurement": "IC50", "setting": "curve of first compound, second compound 0.000949 µM", "value": "< 0.0949", "unit": "µM"},
      {"measurement": "IC50", "setting": "[1]", "value": "< 0.0949", "unit": "µM"},
      {"measurement": "viability, T/C", "setting": "second compound 30 pM, first compound 0.0949 µM", "value": 112, "unit": "%"},
      {"measurement": "viability, T/C", "setting": "second compound 30 pM, first compound 0.3 µM", "value": 108, "unit": "%"},
      {"measurement": "viability, T/C", "setting": "second compound 30 pM, first compound 0.949 µM", "value": 99.5, "unit": "%"},
      {"measurement": "viability, T/C", "setting": "second compound 30 pM, first compound 3 µM", "value": 112, "unit": "%"},
      {"measurement": "viability, T/C", "setting": "second compound 30 pM, first compound 9.49 µM", "value": 48.3, "unit": "%"},
      {"measurement": "viability, T/C", "setting": "second compound 30 pM, first compound 30 µM", "value": 4.03, "unit": "%"},
      {"measurement": "viability, T/C", "setting": "second compound 94.9 pM, first compound 0.0949 µM", "value": 114, "unit": "%"},
      {"measurement": "viability, T/C", "setting": "second compound 94.9 pM, first compound 0.3 µM", "value": 114, "unit": "%"},
      {"measurement": "viability, T/C", "setting": "second compound 94.9 pM, first compound 0.949 µM", "value": 109, "unit": "%"},
      {"measurement": "viability, T/C", "setting": "second compound 94.9 pM, first compound 3 µM", "value": 109, "unit": "%"},
      {"measurement": "viability, T/C", "setting": "second compound 94.9 pM, first compound 9.49 µM", "value": 54.4, "unit": "%"},
      {"measurement": "viability, T/C", "setting": "second compound 94.9 pM, first compound 30 µM", "value": 2.51, "unit": "%"},
      {"measurement": "viability, T/C", "setting": "second compound 0.0003 µM, first compound 0.0949 µM", "value": 98.8, "unit": "%"},
      {"measurement": "viability, T/C", "setting": "second compound 0.0003 µM, first compound 0.3 µM", "value": 102, "unit": "%"},
      {"measurement": "viability, T/C", "setting": "second compound 0.0003 µM, first compound 0.949 µM", "value": 68, "unit": "%"},
      {"measurement": "viability, T/C", "setting": "second compound 0.0003 µM, first compound 3 µM", "value": 18.6, "unit": "%"},
      {"measurement": "viability, T/C", "setting": "second compound 0.0003 µM, first compound 9.49 µM", "value": 0.6, "unit": "%"},
      {"measurement": "viability, T/C", "setting": "second compound 0.0003 µM, first compound 30 µM", "value": 0.57, "unit": "%"},
      {"measurement": "viability, T/C", "setting": "second compound 0.000949 µM, first compound 0.0949 µM", "value": 0.38, "unit": "%"},
      {"measurement": "viability, T/C", "setting": "second compound 0.000949 µM, first compound 0.3 µM", "value": 0.39, "unit": "%"},
      {"measurement": "viability, T/C", "setting": "second compound 0.000949 µM, first compound 0.949 µM", "value": 0.26, "unit": "%"},
      {"measurement": "viability, T/C", "setting": "second compound 0.000949 µM, first compound 3 µM", "value": 0.18, "unit": "%"},
      {"measurement": "viability, T/C", "setting": "second compound 0.000949 µM, first compound 9.49 µM", "value": 0.07, "unit": "%"},
      {"measurement": "viability, T/C", "setting": "second compound 0.000949 µM, first compound 30 µM", "value": 0.23, "unit": "%"},
      {"measurement": "viability, T/C", "setting": "second compound 0.003 µM, first compound 0.0949 µM", "value": 0.32, "unit": "%"},
      {"measurement": "viability, T/C", "setting": "second compound 0.003 µM, first compound 0.3 µM", "value": 0.31, "unit": "%"},
      {"measurement": "viability, T/C", "setting": "second compound 0.003 µM, first compound 0.949 µM", "value": 0.3, "unit": "%"},
      {"measurement": "viability, T/C", "setting": "second compound 0.003 µM, first compound 3 µM", "value": 0.29, "unit": "%"},
      {"measurement": "viability, T/C", "setting": "second compound 0.003 µM, first compound 9.49 µM", "value": 0.28, "unit": "%"},
      {"measurement": "viability, T/C", "setting": "second compound 0.003 µM, first compound 30 µM", "value": 0.35, "unit": "%"}
    ]},
    {"molecule": "O=C(c1cc(Cc2n[nH]c(=O)c3ccccc23)ccc1F)N1CCN(C(=O)C2CC2)CC1", "values": [
      {"measurement": "viability, T/C", "setting": "compound 0.0949 µM", "value": 103, "unit": "%"},
      {"measurement": "viability, T/C", "setting": "compound 0.3 µM", "value": "91.4% and 92.4% and 106%"},
      {"measurement": "viability, T/C", "setting": "compound 0.949 µM", "value": "91.6% and 89.5% and 109%"},
      {"measurement": "viability, T/C", "setting": "compound 3 µM", "value": "90.2% and 93.9% and 108%"},
      {"measurement": "viability, T/C", "setting": "compound 9.49 µM", "value": "87.1% and 76.8% and 96.1%"},
      {"measurement": "IC50", "setting": "curve of compound", "value": "21.4 µM and 14.9 µM and 20.2 µM"}
    ]},
    {"molecule": "COc1ccc([C@@H](O)c2cc(-c3ncnc4cc(N5CCOCC5)ccc34)c(F)cc2Cl)nn1", "note": "+ CC[C@@]1(O)C(=O)OCc2c1cc1n(c2=O)Cc2cc3c(CN(C)C)c(O)ccc3nc2-1", "values": [
      {"measurement": "IC50", "setting": "[1]", "value": "> 10", "unit": "µM"},
      {"measurement": "IC50", "setting": "curve of first compound, second compound 0.00949 µM", "value": "> 10", "unit": "µM"},
      {"measurement": "IC50", "setting": "curve of first compound, second compound 0.03 µM", "value": "< 0.0316", "unit": "µM"},
      {"measurement": "IC50", "setting": "curve of first compound, second compound 0.0949 µM", "value": "< 0.0316", "unit": "µM"},
      {"measurement": "IC50", "setting": "curve of first compound, second compound 0.3 µM", "value": "< 0.0316", "unit": "µM"},
      {"measurement": "viability, T/C", "setting": "second compound 0.003 µM, first compound 0.0316 µM", "value": 91.5, "unit": "%"},
      {"measurement": "viability, T/C", "setting": "second compound 0.003 µM, first compound 0.1 µM", "value": 97.4, "unit": "%"},
      {"measurement": "viability, T/C", "setting": "second compound 0.003 µM, first compound 0.316 µM", "value": 95.8, "unit": "%"},
      {"measurement": "viability, T/C", "setting": "second compound 0.003 µM, first compound 1 µM", "value": 105, "unit": "%"},
      {"measurement": "viability, T/C", "setting": "second compound 0.003 µM, first compound 3.16 µM", "value": 96.5, "unit": "%"},
      {"measurement": "viability, T/C", "setting": "second compound 0.003 µM, first compound 10 µM", "value": 83.9, "unit": "%"},
      {"measurement": "viability, T/C", "setting": "second compound 0.00949 µM, first compound 0.0316 µM", "value": 94.3, "unit": "%"},
      {"measurement": "viability, T/C", "setting": "second compound 0.00949 µM, first compound 0.1 µM", "value": 94.1, "unit": "%"},
      {"measurement": "viability, T/C", "setting": "second compound 0.00949 µM, first compound 0.316 µM", "value": 100, "unit": "%"},
      {"measurement": "viability, T/C", "setting": "second compound 0.00949 µM, first compound 1 µM", "value": 92.1, "unit": "%"},
      {"measurement": "viability, T/C", "setting": "second compound 0.00949 µM, first compound 3.16 µM", "value": 93.2, "unit": "%"},
      {"measurement": "viability, T/C", "setting": "second compound 0.00949 µM, first compound 10 µM", "value": 54.9, "unit": "%"},
      {"measurement": "viability, T/C", "setting": "second compound 0.03 µM, first compound 0.0316 µM", "value": 21.7, "unit": "%"},
      {"measurement": "viability, T/C", "setting": "second compound 0.03 µM, first compound 0.1 µM", "value": 24.2, "unit": "%"},
      {"measurement": "viability, T/C", "setting": "second compound 0.03 µM, first compound 0.316 µM", "value": 11.3, "unit": "%"},
      {"measurement": "viability, T/C", "setting": "second compound 0.03 µM, first compound 1 µM", "value": 5.39, "unit": "%"},
      {"measurement": "viability, T/C", "setting": "second compound 0.03 µM, first compound 3.16 µM", "value": 0.97, "unit": "%"},
      {"measurement": "viability, T/C", "setting": "second compound 0.03 µM, first compound 10 µM", "value": 5.74, "unit": "%"},
      {"measurement": "viability, T/C", "setting": "second compound 0.0949 µM, first compound 0.0316 µM", "value": 1.23, "unit": "%"},
      {"measurement": "viability, T/C", "setting": "second compound 0.0949 µM, first compound 0.1 µM", "value": 1.03, "unit": "%"},
      {"measurement": "viability, T/C", "setting": "second compound 0.0949 µM, first compound 0.316 µM", "value": 1.21, "unit": "%"},
      {"measurement": "viability, T/C", "setting": "second compound 0.0949 µM, first compound 1 µM", "value": 0.99, "unit": "%"},
      {"measurement": "viability, T/C", "setting": "second compound 0.0949 µM, first compound 3.16 µM", "value": 0.52, "unit": "%"},
      {"measurement": "viability, T/C", "setting": "second compound 0.0949 µM, first compound 10 µM", "value": 0.59, "unit": "%"},
      {"measurement": "viability, T/C", "setting": "second compound 0.3 µM, first compound 0.0316 µM", "value": 1.41, "unit": "%"},
      {"measurement": "viability, T/C", "setting": "second compound 0.3 µM, first compound 0.1 µM", "value": 1.01, "unit": "%"},
      {"measurement": "viability, T/C", "setting": "second compound 0.3 µM, first compound 0.316 µM", "value": 1.15, "unit": "%"},
      {"measurement": "viability, T/C", "setting": "second compound 0.3 µM, first compound 1 µM", "value": 0.88, "unit": "%"},
      {"measurement": "viability, T/C", "setting": "second compound 0.3 µM, first compound 3.16 µM", "value": 0.44, "unit": "%"},
      {"measurement": "viability, T/C", "setting": "second compound 0.3 µM, first compound 10 µM", "value": 0.41, "unit": "%"}
    ]}
  ]
}
